# Measurements reported in ChEMBL document CHEMBL5465560, “Selectivity Literature for EUbOPEN Chemogenomic Library” (2024).
# Key:
# [1] = molecular target: Cannabinoid receptor 2 (Homo sapiens) (UniProt P34972); test: Selectivity interaction (Panel of non-epigenetic targets (kinases, GPCRs, ion channels, and transporters, Eurofins) ) EUB0000271b CNR2; conditions: at 1 µM
# [2] = molecular target: Casein kinase II subunit alpha' (Homo sapiens) (UniProt P19784); conditions: at 10 µM
# [3] = molecular target: T1, Casein kinase I isoform alpha-like (Homo sapiens) (UniProt Q8N752); test: Selectivity interaction (KinomeScan (DiscoverX)) EUB0001079a CSNK1A1L; conditions: at 1 µM
# T1 sequence (whole entry): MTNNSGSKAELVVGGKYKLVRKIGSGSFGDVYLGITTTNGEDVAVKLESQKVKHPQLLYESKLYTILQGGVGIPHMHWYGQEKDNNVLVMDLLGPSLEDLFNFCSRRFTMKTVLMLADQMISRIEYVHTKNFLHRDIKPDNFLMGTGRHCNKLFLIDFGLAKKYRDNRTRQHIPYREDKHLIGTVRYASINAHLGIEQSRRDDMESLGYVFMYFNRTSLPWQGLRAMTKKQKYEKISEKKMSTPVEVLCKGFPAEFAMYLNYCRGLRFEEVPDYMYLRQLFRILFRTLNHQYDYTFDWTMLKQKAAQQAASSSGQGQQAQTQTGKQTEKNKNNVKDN
# [4] = molecular target: Serine/threonine-protein kinase PAK 2 (Homo sapiens) (UniProt Q13177); test: Selectivity interaction (KinomeScan (DiscoverX)) EUB0000595a PAK2; conditions: at 10 µM
# [5] = molecular target: Ribosomal protein S6 kinase alpha-5 (Homo sapiens) (UniProt O75582); conditions: at 10 µM
# [6] = molecular target: T2, Dual specificity mitogen-activated protein kinase kinase 5 (Homo sapiens) (UniProt Q13163); test: Selectivity interaction (ActivX KiNativ screen (kinase selectivity in THP-1 cell lysates)) EUB0000639a MAP2K5; format: subcellular; conditions: lysate
# T2 sequence (whole entry): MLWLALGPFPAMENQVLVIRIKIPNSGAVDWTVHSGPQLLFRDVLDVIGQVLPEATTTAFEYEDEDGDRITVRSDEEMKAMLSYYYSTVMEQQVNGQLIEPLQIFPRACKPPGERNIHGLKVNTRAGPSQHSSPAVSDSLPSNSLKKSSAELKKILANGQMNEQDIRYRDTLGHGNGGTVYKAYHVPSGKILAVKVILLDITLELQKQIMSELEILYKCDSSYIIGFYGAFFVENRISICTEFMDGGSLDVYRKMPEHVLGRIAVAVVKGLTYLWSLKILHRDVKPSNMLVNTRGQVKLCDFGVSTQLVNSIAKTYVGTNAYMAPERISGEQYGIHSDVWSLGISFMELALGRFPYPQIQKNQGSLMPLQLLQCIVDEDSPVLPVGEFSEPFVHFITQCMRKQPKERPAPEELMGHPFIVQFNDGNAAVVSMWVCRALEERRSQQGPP
# [7] = molecular target: T3, Serine/threonine-protein kinase Nek9 (Homo sapiens) (UniProt Q8TD19); test: Selectivity interaction (ActivX KiNativ screen (kinase selectivity in THP-1 cell lysates)) EUB0000639a NEK9; format: subcellular; conditions: lysate, at 0.2 µM
# T3 sequence (whole entry): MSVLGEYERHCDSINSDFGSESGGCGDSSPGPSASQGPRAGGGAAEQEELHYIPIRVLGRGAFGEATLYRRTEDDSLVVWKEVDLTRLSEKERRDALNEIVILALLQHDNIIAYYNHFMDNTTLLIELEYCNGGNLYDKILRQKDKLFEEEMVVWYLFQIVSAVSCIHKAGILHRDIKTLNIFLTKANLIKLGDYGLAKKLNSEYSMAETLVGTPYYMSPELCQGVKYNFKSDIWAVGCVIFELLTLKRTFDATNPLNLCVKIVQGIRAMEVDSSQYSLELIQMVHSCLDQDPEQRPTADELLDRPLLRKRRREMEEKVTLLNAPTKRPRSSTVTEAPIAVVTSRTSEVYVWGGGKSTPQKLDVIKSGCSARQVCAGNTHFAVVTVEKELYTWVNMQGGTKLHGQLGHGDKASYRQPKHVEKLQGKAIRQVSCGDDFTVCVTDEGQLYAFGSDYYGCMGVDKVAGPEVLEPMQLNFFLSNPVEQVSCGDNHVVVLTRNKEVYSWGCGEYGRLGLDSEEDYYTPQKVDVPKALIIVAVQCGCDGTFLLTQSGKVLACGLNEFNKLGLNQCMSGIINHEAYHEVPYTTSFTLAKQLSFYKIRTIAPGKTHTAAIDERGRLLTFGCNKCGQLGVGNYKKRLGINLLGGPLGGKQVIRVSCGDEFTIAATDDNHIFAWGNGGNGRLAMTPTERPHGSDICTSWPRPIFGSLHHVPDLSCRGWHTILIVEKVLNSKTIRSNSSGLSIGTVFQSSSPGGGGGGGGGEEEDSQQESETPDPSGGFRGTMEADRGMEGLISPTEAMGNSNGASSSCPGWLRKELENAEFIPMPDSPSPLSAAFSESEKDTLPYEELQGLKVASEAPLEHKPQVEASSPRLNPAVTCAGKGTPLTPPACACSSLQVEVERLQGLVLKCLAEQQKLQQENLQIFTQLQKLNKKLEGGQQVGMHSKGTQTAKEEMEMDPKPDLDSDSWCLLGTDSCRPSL
# [8] = molecular target: Ribosomal protein S6 kinase alpha-3 (Homo sapiens, UniProt P51812); test: Selectivity interaction (ActivX KiNativ screen (kinase selectivity in THP-1 cell lysates)) EUB0000639a RPS6KA3; format: subcellular; conditions: lysate, at 0.2 µM
# [9] = molecular target: STE20-like serine/threonine-protein kinase (Homo sapiens, UniProt Q9H2G2); test: Selectivity interaction (KinomeScan (DiscoverX)) EUB0001049a SLK; conditions: at 1 µM
# [10] = molecular target: Tyrosine-protein kinase CSK (Homo sapiens) (UniProt P41240); test: Selectivity interaction (Kinase screening (Upstate/Millipore)) EUB0000604a CSK
# Chain of Tyrosine-protein kinase CSK (Homo sapiens) (P41240 2-450 limits assumed): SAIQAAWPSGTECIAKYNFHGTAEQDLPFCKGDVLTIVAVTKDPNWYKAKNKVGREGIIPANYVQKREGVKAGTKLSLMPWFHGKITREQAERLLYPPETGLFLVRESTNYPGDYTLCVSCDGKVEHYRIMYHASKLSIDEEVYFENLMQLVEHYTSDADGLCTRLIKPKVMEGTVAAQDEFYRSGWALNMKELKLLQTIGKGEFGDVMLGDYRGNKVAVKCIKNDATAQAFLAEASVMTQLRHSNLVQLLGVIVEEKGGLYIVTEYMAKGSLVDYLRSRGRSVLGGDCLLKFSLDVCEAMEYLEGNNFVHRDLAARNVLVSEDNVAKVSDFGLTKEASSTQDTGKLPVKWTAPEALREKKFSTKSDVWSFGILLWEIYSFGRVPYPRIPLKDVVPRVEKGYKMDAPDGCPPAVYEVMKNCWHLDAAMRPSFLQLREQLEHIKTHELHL
# Chain of Ribosomal protein S6 kinase alpha-3 (P51812 whole entry): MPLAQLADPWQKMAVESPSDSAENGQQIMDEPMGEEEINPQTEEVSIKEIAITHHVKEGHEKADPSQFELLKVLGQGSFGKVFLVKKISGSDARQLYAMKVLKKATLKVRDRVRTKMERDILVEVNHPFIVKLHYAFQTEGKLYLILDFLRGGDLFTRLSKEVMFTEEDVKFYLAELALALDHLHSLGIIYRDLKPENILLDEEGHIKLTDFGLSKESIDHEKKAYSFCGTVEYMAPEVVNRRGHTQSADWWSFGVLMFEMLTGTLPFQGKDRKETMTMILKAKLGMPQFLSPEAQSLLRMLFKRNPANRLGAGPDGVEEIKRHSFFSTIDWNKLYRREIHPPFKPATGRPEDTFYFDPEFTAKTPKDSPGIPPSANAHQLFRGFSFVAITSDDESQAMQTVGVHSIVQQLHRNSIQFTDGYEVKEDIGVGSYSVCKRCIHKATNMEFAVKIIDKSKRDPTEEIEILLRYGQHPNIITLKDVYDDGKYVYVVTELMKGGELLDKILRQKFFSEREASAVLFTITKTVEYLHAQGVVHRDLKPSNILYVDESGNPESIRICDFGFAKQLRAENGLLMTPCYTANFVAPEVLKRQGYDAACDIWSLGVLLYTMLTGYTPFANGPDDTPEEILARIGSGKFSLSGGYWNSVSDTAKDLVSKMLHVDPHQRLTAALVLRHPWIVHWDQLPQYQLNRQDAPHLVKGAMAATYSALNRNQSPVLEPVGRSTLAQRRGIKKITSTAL
# Chain of Serine/threonine-protein kinase PAK 2 (Homo sapiens) (Q13177 whole entry): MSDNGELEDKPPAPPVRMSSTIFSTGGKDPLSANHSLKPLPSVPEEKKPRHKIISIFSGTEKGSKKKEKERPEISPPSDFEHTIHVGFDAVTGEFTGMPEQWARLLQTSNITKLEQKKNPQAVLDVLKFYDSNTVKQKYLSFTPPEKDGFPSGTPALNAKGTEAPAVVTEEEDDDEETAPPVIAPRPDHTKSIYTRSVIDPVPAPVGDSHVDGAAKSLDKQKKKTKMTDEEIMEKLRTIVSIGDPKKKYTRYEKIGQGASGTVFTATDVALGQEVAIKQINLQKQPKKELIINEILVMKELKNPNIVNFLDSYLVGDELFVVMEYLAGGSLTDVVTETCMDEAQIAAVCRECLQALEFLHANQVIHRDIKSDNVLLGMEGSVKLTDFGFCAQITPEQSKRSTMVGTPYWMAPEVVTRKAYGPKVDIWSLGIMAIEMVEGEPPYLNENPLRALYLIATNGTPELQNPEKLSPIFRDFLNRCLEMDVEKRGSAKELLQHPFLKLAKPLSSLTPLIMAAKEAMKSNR
# Chain of Cannabinoid receptor 2 (Homo sapiens) (P34972 whole entry): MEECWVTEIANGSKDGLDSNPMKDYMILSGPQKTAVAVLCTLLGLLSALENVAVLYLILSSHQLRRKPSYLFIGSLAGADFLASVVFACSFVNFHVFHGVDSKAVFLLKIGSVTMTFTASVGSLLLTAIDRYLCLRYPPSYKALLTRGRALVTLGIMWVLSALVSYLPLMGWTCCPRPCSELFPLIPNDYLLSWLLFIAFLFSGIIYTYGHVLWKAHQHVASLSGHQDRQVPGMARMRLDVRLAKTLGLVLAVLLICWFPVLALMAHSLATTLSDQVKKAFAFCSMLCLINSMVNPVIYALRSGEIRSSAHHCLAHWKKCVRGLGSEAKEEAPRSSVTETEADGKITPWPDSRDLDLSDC
# Chain of Casein kinase II subunit alpha' (Homo sapiens) (P19784 whole entry, looked up, canonical isoform): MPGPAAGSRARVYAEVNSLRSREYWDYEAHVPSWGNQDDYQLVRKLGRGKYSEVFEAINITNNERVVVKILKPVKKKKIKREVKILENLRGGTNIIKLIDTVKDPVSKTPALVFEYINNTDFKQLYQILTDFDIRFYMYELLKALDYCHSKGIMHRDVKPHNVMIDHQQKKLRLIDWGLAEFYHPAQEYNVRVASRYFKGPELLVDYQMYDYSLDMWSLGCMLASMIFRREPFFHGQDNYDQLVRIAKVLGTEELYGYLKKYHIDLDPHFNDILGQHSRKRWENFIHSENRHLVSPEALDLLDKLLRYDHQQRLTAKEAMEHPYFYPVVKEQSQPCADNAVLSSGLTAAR
# Chain of Ribosomal protein S6 kinase alpha-5 (Homo sapiens) (O75582 whole entry, looked up): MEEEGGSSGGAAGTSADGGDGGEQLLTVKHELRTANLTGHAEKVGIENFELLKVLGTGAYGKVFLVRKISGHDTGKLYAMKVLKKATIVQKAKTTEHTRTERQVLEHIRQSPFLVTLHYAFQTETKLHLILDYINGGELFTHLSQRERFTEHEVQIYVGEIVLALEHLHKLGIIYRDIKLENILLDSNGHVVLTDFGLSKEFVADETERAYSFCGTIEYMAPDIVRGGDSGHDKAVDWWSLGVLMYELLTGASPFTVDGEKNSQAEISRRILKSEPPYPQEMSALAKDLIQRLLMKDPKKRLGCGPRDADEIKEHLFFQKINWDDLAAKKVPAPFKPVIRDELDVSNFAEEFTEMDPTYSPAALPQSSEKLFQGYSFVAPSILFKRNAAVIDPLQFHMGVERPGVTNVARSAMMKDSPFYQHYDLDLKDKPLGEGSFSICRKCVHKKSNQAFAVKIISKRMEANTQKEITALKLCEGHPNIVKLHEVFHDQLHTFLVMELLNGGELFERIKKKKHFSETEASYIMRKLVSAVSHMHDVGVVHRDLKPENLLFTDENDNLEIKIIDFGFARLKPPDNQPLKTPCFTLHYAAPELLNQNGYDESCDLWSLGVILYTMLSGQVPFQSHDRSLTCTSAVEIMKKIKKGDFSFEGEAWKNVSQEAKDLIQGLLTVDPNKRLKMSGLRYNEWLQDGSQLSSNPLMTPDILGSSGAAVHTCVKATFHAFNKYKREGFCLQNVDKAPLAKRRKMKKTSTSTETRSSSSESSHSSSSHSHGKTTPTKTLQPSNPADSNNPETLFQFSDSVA
# Chain of STE20-like serine/threonine-protein kinase (Q9H2G2 whole entry, looked up): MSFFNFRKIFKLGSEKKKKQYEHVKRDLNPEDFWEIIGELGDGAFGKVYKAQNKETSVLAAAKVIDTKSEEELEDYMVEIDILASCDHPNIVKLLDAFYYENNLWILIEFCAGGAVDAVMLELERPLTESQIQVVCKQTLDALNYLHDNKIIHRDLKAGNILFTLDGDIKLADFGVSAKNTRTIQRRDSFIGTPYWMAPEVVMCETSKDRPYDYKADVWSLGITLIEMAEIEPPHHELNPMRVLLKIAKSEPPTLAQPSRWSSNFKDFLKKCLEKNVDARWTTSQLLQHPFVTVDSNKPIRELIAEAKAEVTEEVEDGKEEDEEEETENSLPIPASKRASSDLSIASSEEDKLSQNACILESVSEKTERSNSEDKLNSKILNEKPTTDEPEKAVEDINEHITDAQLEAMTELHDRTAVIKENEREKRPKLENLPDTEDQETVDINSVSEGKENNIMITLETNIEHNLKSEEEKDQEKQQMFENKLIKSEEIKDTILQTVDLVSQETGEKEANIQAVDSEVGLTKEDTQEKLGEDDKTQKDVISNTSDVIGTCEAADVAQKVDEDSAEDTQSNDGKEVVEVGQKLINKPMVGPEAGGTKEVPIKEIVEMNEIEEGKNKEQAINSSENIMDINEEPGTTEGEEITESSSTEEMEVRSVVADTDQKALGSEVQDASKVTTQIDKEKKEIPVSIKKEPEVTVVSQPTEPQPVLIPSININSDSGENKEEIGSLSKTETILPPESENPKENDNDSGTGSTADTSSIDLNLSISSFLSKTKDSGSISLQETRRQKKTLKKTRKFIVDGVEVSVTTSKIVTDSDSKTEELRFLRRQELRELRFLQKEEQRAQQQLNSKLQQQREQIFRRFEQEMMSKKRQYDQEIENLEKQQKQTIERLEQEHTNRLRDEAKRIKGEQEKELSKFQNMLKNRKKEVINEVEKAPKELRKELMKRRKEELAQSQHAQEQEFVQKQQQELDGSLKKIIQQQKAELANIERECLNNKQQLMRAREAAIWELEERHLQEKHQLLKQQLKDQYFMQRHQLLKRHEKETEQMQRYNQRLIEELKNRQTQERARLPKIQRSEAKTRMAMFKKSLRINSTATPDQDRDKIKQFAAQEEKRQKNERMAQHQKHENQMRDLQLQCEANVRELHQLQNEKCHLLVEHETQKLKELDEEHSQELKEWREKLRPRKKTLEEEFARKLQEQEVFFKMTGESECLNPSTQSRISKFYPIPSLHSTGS
smiles,measurement,setting,value
Cc1cc(C)cc([C@@H]2c3cc(C)ccc3NC(=O)CN2C(=O)c2ccc(Br)s2)c1,% of inhibition,[1],-19%
CCN(CC)CCCCNc1ncc2cc(-c3cc(OC)cc(OC)c3)c(NC(=O)NC(C)(C)C)nc2n1,% of control,[2],100%
Nc1cnc(N2CCc3cc(S(=O)(=O)Nc4c(F)cc(Cl)cc4F)cc(N4CCCC4=O)c32)nc1 [TP-020n],% of control,[3],100%
COCC(=O)NC/C=C/c1ccc2ncnc(Nc3ccc(Oc4ccc(C)nc4)c(C)c3)c2c1 [CP-724714],% of control,[4],87%
Cc1cc([C@@H](C)Nc2ccccc2C(=O)O)c2nc(N3CCOCC3)cc(=O)n2c1 [AZD-6482],% of control,[5],91%
CC[C@@H]1[C@H](F)C(=O)N[C@@H]1COc1nccc2cc(C(N)=O)c(OC)cc12 [ZIMLOVISERTIB],% of inhibition,[6]; at 0.01 µM,4.3%
same,% of inhibition,[6]; at 0.04 µM,-11.1%
same,% of inhibition,[6]; at 0.2 µM,-18.3%
same,% of inhibition,[6]; at 1 µM,-7.3%
same,% of inhibition,[6]; at 5 µM,-18.8%
same,% of inhibition,[7],8.3%
same,% of inhibition,[8],5.4%
COc1cc(Nc2nc(C)cc(-c3cnn4nc(OC)ccc34)n2)cc(C(F)(F)F)c1,% of control,[9],88%
Cc1cnc(Nc2ccc(F)cc2Cl)nc1-c1c[nH]c(C(=O)N[C@H](CO)c2cccc(Cl)c2)c1,% of inhibition,[10],0%
